According to patent publication US20190105367A1, “ANTIMICROBIAL 4-OXOQUINOLIZINES” (Emergent Product Development Gaithersburg Inc., priority 2011, published 2019):
Values after ≈ are worked out from the molar mass of the structure shown. Read-outs that look alike come from different tables or passages of the source.

Assays:
A. baumannii A14 [1] = experiment: MIC without and with sub-inhibitory polymyxin B (Example 4); assay type: cell-based, Acinetobacter baumannii; conditions: 1st experiment
A. baumannii A329 [2] = experiment: as above; assay type: cell-based, Acinetobacter baumannii; conditions: +0.06 μg/ml PB, 2nd experiment
A. baumannii A390 [3] = experiment: as above; assay type: cell-based, Acinetobacter baumannii; conditions: +0.06 μg/ml PB, 2nd experiment
A. baumannii A472 [4] = experiment: as above; assay type: cell-based, Acinetobacter baumannii; conditions: for MIC: Acinetobacter baumannii
A. baumannii A387 [5] = experiment: as above; assay type: cell-based, Acinetobacter baumannii; conditions: for MIC without PB/MIC + PB: A. baumannii A387
A. baumannii A401 [6] = experiment: as above; assay type: cell-based, Acinetobacter baumannii; conditions: for MIC: Acinetobacter baumannii
A. baumannii J2 = experiment: as above; assay type: cell-based, Acinetobacter baumannii; conditions: for MIC without PB/MIC + PB: A. baumannii J2; for MIC: Acinetobacter baumannii
A. baumannii A401 [7] = experiment: Preliminary MBC without and with sub-inhibitory polymyxin B (Example 4); assay type: cell-based, Acinetobacter baumannii; conditions: Acinetobacter baumannii
A. baumannii A329 [8] = experiment: as above; assay type: cell-based, Acinetobacter baumannii; conditions: Acinetobacter baumannii, A329, A. baumannii A329, +0.06 μg/ml PB, 2nd experiment, read-out: MBC
A. baumannii A473 [9] = experiment: MIC without and with sub-inhibitory polymyxin B (Example 4); assay type: cell-based, Acinetobacter baumannii; conditions: A. baumannii A473; +0.06 μg/ml PB; 2nd experiment
[10] = system: Acinetobacter sp. (H064200250); experiment: as above; assay type: cell-based; conditions: for MIC: Acinetobacter
[11] = system: strains of A. baumannii and one strain of Acinetobacter sp.; experiment: MIC with sub-inhibitory concentrations (0.25x MIC) of polymyxin B, panel of Acinetobacter strains (Example 4); assay type: cell-based
A. baumannii A14 [12] = experiment: Preliminary MBC without and with sub-inhibitory polymyxin B (Example 4); assay type: cell-based, Acinetobacter baumannii; conditions: A. baumannii A14; +0.06 μg/ml polymyxin B; preliminary MBC; 1st experiment
A. baumannii A472 [13] = experiment: as above; assay type: cell-based, Acinetobacter baumannii; conditions: Acinetobacter baumannii, preliminary MBC
A. baumannii A473 [14] = experiment: as above; assay type: cell-based, Acinetobacter baumannii; conditions: Acinetobacter baumannii, A473, A. baumannii A473, +0.06 μg/ml PB, 2nd experiment, read-out: MBC
In short: (§1)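 Incubation 18-20 h, 37° C. MBC = lowest conc. with ~90% fewer colonies than positive control (single/no colonies).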

A. baumannii A14 [15] = experiment: as above; assay type: cell-based, Acinetobacter baumannii; conditions: A. baumannii A14, +0.06 μg/ml PB, 2nd experiment
In short: as §1

A. baumannii A390 [16] = experiment: as above; assay type: cell-based, Acinetobacter baumannii; conditions: Acinetobacter baumannii, A390, A. baumannii A390, +0.06 μg/ml PB, 2nd experiment, read-out: MBC
In short: as §1

A. baumannii NCTC 13301 [17] = experiment: as above; assay type: cell-based, Acinetobacter baumannii; conditions: Acinetobacter baumannii
In short: as §1

A. baumannii A14 [18] = experiment: MIC without and with sub-inhibitory polymyxin B (Example 4); assay type: cell-based, Acinetobacter baumannii; conditions: 2nd experiment
A. baumannii NCTC 13301 [19] = experiment: as above; assay type: cell-based, Acinetobacter baumannii
A. baumannii A387 [20] = experiment: Preliminary MBC without and with sub-inhibitory polymyxin B (Example 4); assay type: cell-based, Acinetobacter baumannii; conditions: Acinetobacter baumannii
A. baumannii ATCC 19606 = experiment: MIC without and with sub-inhibitory polymyxin B (Example 4); assay type: cell-based, Acinetobacter baumannii; conditions: for MIC without PB/MIC + PB: A. baumannii ATCC 19606
A. baumannii A489 = experiment: Preliminary MBC without and with sub-inhibitory polymyxin B (Example 4); assay type: cell-based, Acinetobacter baumannii; conditions: Acinetobacter baumannii, preliminary MBC
A. baumannii NCTC 13301 [21] = experiment: MIC without and with sub-inhibitory polymyxin B (Example 4); assay type: cell-based, Acinetobacter baumannii; conditions: +[…] PB, 2nd experiment
[22] = ratio, PB 0.06 μg/ml, 1st experiment
[23] = A. baumannii A14, +0.06 μg/ml PB

**Q.** What does the source list for `Cc1c(-c2ccc(CN)c(F)c2)ccn2c(=O)c(C(=O)O)cc(C3CC3)c12` [Compound 4, 8-(3-fluoro-4-aminomethyl-phenyl)-1-cyclopropyl-9-methyl-4-oxo-quinolizine-3-carboxylic acid]?
**A.** MIC +0.06 μg/ml PB (A. baumannii A14 [1]; +0.06 μg/ml polymyxin B): 8 µg/mL; MIC without PB/MIC + PB (A. baumannii A14 [1]; ratio, PB 0.06 μg/ml): 4; MIC without PB/MIC + PB (A. baumannii A329 [2]; A. baumannii A329): 2; MIC (A. baumannii A329 [2]; Acinetobacter baumannii, A329, A. baumannii A329, read-out: MIC): 8 µg/mL (≈ 21.8 µM); MIC without PB/MIC + PB (A. baumannii A390 [3]; A. baumannii A390): 64; MIC (A. baumannii A390 [3]; Acinetobacter baumannii, A390, A. baumannii A390, read-out: MIC): 0.5 µg/mL (≈ 1.36 µM); MIC without PB/MIC + PB (A. baumannii A472 [4]; A. baumannii A472, ratio, PB […], 1st experiment): 4; MIC (A. baumannii A472 [4]; A472, A. baumannii A472, +[…] PB, 2nd experiment, read-out: MIC): 0.125 µg/mL (≈ 0.341 µM); MIC (A. baumannii A472 [4]; A472, read-out: MIC +[…] PB, A. baumannii A472, +[…] polymyxin B, 1st experiment): 1 µg/mL (≈ 2.73 µM); MIC without PB/MIC + PB (A. baumannii A387 [5]; +0.06 μg/ml PB, 2nd experiment): 8; MIC without PB/MIC + PB (A. baumannii A387 [5]; [22]): 2; MIC (A. baumannii A387 [5]; Acinetobacter baumannii, A387, read-out: MIC +0.06 μg/ml PB, A. baumannii A387, +0.06 μg/ml polymyxin B, 1st experiment): 1 µg/mL; MIC without PB/MIC + PB (A. baumannii A401 [6]; A baumannii A 401, ratio, PB 0.06 μg/ml, 1st experiment): 4; MIC (A. baumannii A401 [6]; A401, A baumannii A 401, +0.06 μg/ml PB, 2nd experiment, read-out: MIC): 0.5 µg/mL (≈ 1.36 µM); MIC (A. baumannii A401 [6]; A401, read-out: MIC +0.06 μg/ml PB, A baumannii A 401, +0.06 μg/ml polymyxin B, 1st experiment): 4 µg/mL; MIC without PB/MIC + PB (A. baumannii J2; +[…] PB, 2nd experiment): 128; MIC without PB/MIC + PB (A. baumannii J2; ratio, PB […], 1st experiment): 4; MIC (A. baumannii J2; J2, A. baumannii J2, +[…] PB, 2nd experiment, read-out: MIC): 0.06 µg/mL (≈ 0.164 µM); MIC (A. baumannii J2; J2, read-out: MIC +[…] PB, A. baumannii J2, +[…] polymyxin B, 1st experiment): 2 µg/mL (≈ 5.46 µM); MBC (A. baumannii A401 [7]; A401, A baumannii A 401, +0.06 μg/ml PB, 2nd experiment, read-out: MBC): 0.5 µg/mL (≈ 1.36 µM); MBC (A. baumannii A401 [7]; A401, read-out: MBC +0.06 μg/ml PB, A baumannii A 401, +0.06 μg/ml polymyxin B, 1st experiment): 2 µg/mL; MBC (A. baumannii A329 [8]): 8 µg/mL (≈ 21.8 µM); MIC (A. baumannii A473 [9]): 0.25 µg/mL (≈ 0.682 µM); MIC without PB/MIC + PB (A. baumannii A473 [9]): 32; MIC without PB/MIC + PB ([10]; Acinetobacter spp. H064200250 (OXA51), +[…] PB, 2nd experiment): 64; MIC without PB/MIC + PB ([10]; Acinetobacter spp. H064200250, ratio, PB […], 1st experiment): 4; MIC ([10]; Acinetobacter spp. H064200250 (OXA51), +[…] PB, 2nd experiment, read-out: MIC): 0.5 µg/mL (≈ 1.36 µM); MIC ([10]; read-out: MIC +[…] PB, Acinetobacter spp. H064200250, +[…] polymyxin B, 1st experiment): 4 µg/mL (≈ 10.9 µM); Range ratios MIC without PB/MIC with PB Oct. 1, 2008 n = 8 ([11]; 1st experiment): 2-8; MIC range with PB (0.25x MIC) Oct. 1, 2008 n = 8 ([11]; 1st experiment, […] polymyxin B, ATCC 19606, A329, A390 and A473 not taken): 1 to 8 µg/mL; Range ratios MIC without PB/MIC with PB Oct. 14, 2008 n = 11 ([11]; 2nd experiment): 1-16; MIC range with PB (0.25x MIC) Oct. 14, 2008 n = 11 ([11]; 2nd experiment, 0.06 μg/ml polymyxin B, all strains except the ATCC strain): 0.5 to 8 µg/mL; MBC +0.06 μg/ml PB (A. baumannii A14 [12]): 8 µg/mL; MBC (A. baumannii A472 [13]; A472, A. baumannii A472, +[…] PB, 2nd experiment, read-out: MBC): 0.125 µg/mL (≈ 0.341 µM); MBC (A. baumannii A472 [13]; A472, read-out: MBC +[…] PB, A. baumannii A472, +[…] polymyxin B, 1st experiment): 1 µg/mL (≈ 2.73 µM); MBC (A. baumannii A473 [14]): 0.25 µg/mL (≈ 0.682 µM); MBC (A. baumannii A14 [15]): 8 µg/mL (≈ 21.8 µM); MBC (A. baumannii A390 [16]): 0.5 µg/mL (≈ 1.36 µM); MBC (A. baumannii NCTC 13301 [17]; NCTC13301, A. baumannii NCTC 13301, +[…] PB, preliminary MBC, 2nd experiment, read-out: MBC): 0.25 µg/mL (≈ 0.682 µM); MBC (A. baumannii NCTC 13301 [17]; NCTC13301, read-out: MBC +[…] PB): 0.5 µg/mL (≈ 1.36 µM); MIC (A. baumannii A14 [18]; [23]): 2 µg/mL (≈ 5.46 µM); MIC without PB/MIC + PB (A. baumannii A14 [18]; [23]): 16; MIC (A. baumannii A14 [18]; Acinetobacter baumannii, A14, A. baumannii A14, without PB, read-out: MIC): 32 µg/mL (≈ 87.3 µM); MIC without PB/MIC + PB (A. baumannii NCTC 13301 [19]; A. baumannii NCTC 13301, ratio, PB […], 1st experiment): 8; MIC (A. baumannii NCTC 13301 [19]; Acinetobacter baumannii, NCTC13301, read-out: MIC +[…] PB): 1 µg/mL (≈ 2.73 µM); MBC (A. baumannii A387 [20]; A387, A. baumannii A387, +0.06 μg/ml PB, 2nd experiment, read-out: MBC): 0.5 µg/mL (≈ 1.36 µM); MBC (A. baumannii A387 [20]; A387, read-out: MBC +0.06 μg/ml PB, A. baumannii A387, +0.06 μg/ml polymyxin B, 1st experiment): 1 µg/mL; MIC without PB/MIC + PB (A. baumannii ATCC 19606; +0.06 μg/ml PB, 2nd experiment): ≥16; MIC without PB/MIC + PB (A. baumannii ATCC 19606; [22]): 2; MIC (A. baumannii ATCC 19606; Acinetobacter baumannii, ATCC19606, read-out: MIC +0.06 μg/ml PB, A. baumannii ATCC 19606, +0.06 μg/ml polymyxin B, 1st experiment): 0.125 µg/mL; MBC (A. baumannii A489; A489, A. baumannii A489, +[…] PB, 2nd experiment, read-out: MBC): 0.06 µg/mL (≈ 0.164 µM); MBC (A. baumannii A489; A489, read-out: MBC +[…] PB, A. baumannii A489, +[…] polymyxin B, 1st experiment): 1 µg/mL (≈ 2.73 µM); MIC without PB/MIC + PB (A. baumannii NCTC 13301 [21]; A. baumannii NCTC 13301): 128; MIC (A. baumannii NCTC 13301 [21]; Acinetobacter baumannii, NCTC13301, A. baumannii NCTC 13301, read-out: MIC): 0.25 µg/mL (≈ 0.682 µM)
